Paper PMC7188779, “Hydroxypropyl-β-Cyclodextrin Complexes of Styryllactones Enhance the Anti-Tumor Effect in SW1116 Cell Line” (Frontiers in Pharmacology, 2020)
Entries after “also recorded” stand apart in the source; their conditions may differ. Read-outs that look alike come from different tables or passages of the source.

How the values were obtained:
[1] = tested on: human embryonic kidney 293T (HEK293T) cell line; assay: MTT cytotoxicity against normal cell line HEK293T; format: cell-based; details: 24 h; for IC50: Homo sapiens, HEK-293T, means ± SEM (n=3)
Method: (§1) The human colon cancer SW1116 cell line, the human hepatocellular carcinoma SMMC-7721 cell line, the human gastric cancer SGC-7901 cell line, and the human hepatocellular carcinoma HepG2 cell line were kindly provided by Xiao-li Xu from the Cancer Center, Fudan University. The human embryonic kidney 293T (HEK293T) cell line was kindly donated by Professor You-hua Xie from Fudan University. These human cancer cell lines were cultured in DMEM medium or RPMI-1640 medium, whereas the HEK293T cell line was cultured in MEM medium. All of the cell lines were supplemented with 10% FBS, penicillin (100 U/ml), and streptomycin ([…]) under a humidified atmosphere of 5% CO2 at 37°C using a CO2 incubator (SANYO, Osaka, Japan). Cell count was assessed using the trypan blue dye exclusion method.
(§2) The antiproliferative effects of the treatments were evaluated using the MTT assay. Cells were seeded at a density of 5×10^3 cells/well in 96-well plates (Corning, NY, USA). After attachment, the culture media were replaced with various concentrations of chemicals for 24 h. Then, the media in 96-well plates were incubated with MTT reagent (5 mg/ml) for 4 h at 37°C. Subsequently, the culture medium was discarded and 100 μl of DMSO was added to each well, to solubilize the formazan crystal formed. The absorbance of formazan crystal solution was determined at 570 nm on a Multiskan FC from Thermo Fisher Scientific Inc. (Waltham, MA, USA).

[2] = tested on: human gastric cancer SGC-7901 cell line; assay: MTT antiproliferative assay, SGC-7901; format: cell-based; details: 24 h, 1.0-100.0 μM, means ± SEM (n=3)
Method: as §1, §2

[3] = tested on: human hepatocellular carcinoma HepG2 cell line; assay: MTT antiproliferative assay, HepG2; format: cell-based; details: 24 h, 1.0-100.0 μM, means ± SEM (n=3)
Method: as §1, §2

[4] = tested on: human colon cancer SW1116 cell line; assay: MTT antiproliferative assay, SW1116; format: cell-based; details: for IC50: Homo sapiens, SW 1116, means ± SEM (n=3); for cell viability of SW1116 cells compared with normal group (0 μM): 30 μM, p < 0.01
Method: as §1, §2

[5] = tested on: human hepatocellular carcinoma SMMC-7721 cell line; assay: MTT antiproliferative assay, SMMC-7721; format: cell-based; details: for IC50: Homo sapiens, SMMC-7721, means ± SEM (n=3)
Method: as §1, §2

[6] = tested on: KB (oral epidermoid carcinoma cell line); design: method as in Trieu et al., 2014; details: ref Trieu et al., 2014; cited from earlier work
[7] = tested on: MCF7 (breast carcinoma); design: method as in Trieu et al., 2014; details: ref Trieu et al., 2014; cited from earlier work
[8] = tested on: HepG2 (liver cancer); design: method as in Trieu et al., 2014; details: ref Trieu et al., 2014; cited from earlier work
[9] = tested on: caspase-3, -8 and -9 in SW1116 cells; assay: Caspase activity assay in cell lysates; format: cell-based, human; details: 8 h
Method: To evaluate the activity of caspases, cell lysates were prepared after their respective designated treatments. The incubation of the growing cells was carried out in 24-well microplates (Corning, NY, USA) for 24 h. The cells were then treated with different concentrations of leiocarpin E-7′-monoacetate under humidified air with 5% CO2 at 37°C. After 8 h of incubation, the culture medium was discarded, the cells collected and washed twice with PBS. The mixture was then centrifuged at 2,000 rpm for 5 min. The PBS supernatant was discarded and the cells (concentration, 5×10^6 cells) were collected. To these cells, ice-cold lysis buffer (150~200 μl) was added. The mixture was placed on ice for 30 min, and then centrifuged (10,000 rpm, 1 min) at 4°C. The supernatant, containing lysed protein, was carefully aspirated and transferred to a new tube. The protein concentration was then measured in 2 μl of the supernatant using the Bradford method. The caspase assays were then performed in 96-well microtiter plates (Keygentec, Nanjing, Jiangsu, China) by incubating 10 μl of protein cell lysate per sample in 80 μl of reaction buffer (1% NP-40, 20 mM Tris-HCl (pH 7.5), 137 mM NaCl, and 10% glycerol) containing 10 μl of caspase substrate (2 mM). Lysates were incubated at 37°C for 4 h. Measuremet was done at 405 nm on a Multiskan FC from Thermo Fisher Scientific Inc. (Waltham, MA, USA). The detailed analysis procedure is described in the manufacturer's protocol (Keygentec, Nanjing, Jiangsu, China).

[10] = tested on: SW1116 cells; assay: Annexin V-FITC/PI double staining by flow cytometry; format: cell-based, human; details: 36 h
Method: The growing cells were incubated in 24-well microplates (Corning, NY, USA) for 24 h. The cells were then treated with various concentrations of leiocarpin E-7′-monoacetate or taxol in humidified air with 5% CO2 at 37°C. After 36 h of incubation, the culture medium was discarded, and the cells were collected. For the apoptosis analysis, cells were suspended with 1×binding buffer (1×10^6 cells/ml) and then labeled with annexin V-FITC/PI, as per the manufacturer's instructions (Keygentec, Nanjing, Jiangsu, China). The analysis of the samples was performed by flow cytometry (Becton-Dickinson Bioscience, San Jose, CA, USA), and the acquired data was analyzed by the CellQuest software (Becton-Dickinson Bioscience, San Jose, CA, USA).

[11] = 1.0-100.0 μM, read-out: IC50 HEK293T
[12] = MTT, 24 h, 1.0-100.0 μM, read-out: IC50 SW1116
[13] = MTT, 24 h, 1.0-100.0 μM, read-out: IC50 SMMC-7721

Compound: O=C1C=CC[C@H]([C@H](O)[C@H](O)c2ccccc2)O1 [Goniodiol, (R)-6-((1R,2R)-1,2-dihydroxy-2-phenylethyl)-5,6-dihydro-2H-pyran-2-one]
- IC50 [1, 11]: > 100 µM
- IC50 [2]: > 100 µM
- IC50 [3]: > 100 µM
- IC50 [4, 12]: 80 ± 4.16 µM
- IC50 [5, 13]: > 100 µM

Compound: COc1cc([C@@H]2c3cc4c(cc3[C@@H](O[C@@H]3O[C@@H]5CO[C@@H](C)O[C@H]5[C@H](O)[C@H]3O)[C@H]3COC(=O)[C@H]23)OCO4)cc(OC)c1O [VP-16, Etoposide, reference compound]
- IC50 [1, 11]: > 100 µM
- IC50 [2]: > 100 µM
- IC50 [3]: > 100 µM
- IC50 [4, 12]: 41.9 ± 0.98 µM
- IC50 [5, 13]: > 100 µM

Compound: O=C1C=CC[C@H]([C@@H](O)[C@H](Oc2cc(O)c3c(c2)O[C@H](c2ccccc2)CC3=O)c2ccccc2)O1 [Leiocarpin B, (S)-5-hydroxy-7-((1R,2R)-2-hydroxy-2-((R)-6-oxo-3,6-dihydro-2H-pyran-2-yl)-1-phenylethoxy)-2-phenylchroman-4-one]
- IC50 [1, 11]: > 100 µM
- IC50 [2]: 18.2 ± 0.88 µM
- IC50 [3]: 19.3 ± 1.42 µM
- cell viability of SW1116 cells compared with normal group (0 μM) ([4]; 24 h): significantly less
- IC50 [4, 12]: 17.5 ± 0.69 µM
- IC50 [5, 13]: 15.5 ± 1.11 µM

Compound: O=C1C=CC[C@H]([C@@H](O)[C@H]2O[C@H]([C@H]3CC=CC(=O)O3)[C@@H](c3ccccc3)c3ccccc32)O1 [Leiocarpin E, (R)-6-((R)-hydroxy((1S,3S,4S)-3-((R)-6-oxo-3,6-dihydro-2H-pyran-2-yl)-4-phenylisochroman-1-yl)methyl)-5,6-dihydro-2H-pyran-2-one]
- IC50 [1, 11]: > 100 µM
- IC50 [2]: > 100 µM
- IC50 [3]: > 100 µM
- cell viability of SW1116 cells compared with normal group (0 μM) ([4]; 24 h): significantly less
- IC50 [4, 12]: 15.1 ± 1.87 µM
- IC50 [5, 13]: > 100 µM

Compound: CC(=O)OC1C(c2ccccc2)OC2C=CC(=O)OC21 (centres unmarked) [7-acetylaltholactone]
- IC50 [6]: 13.1 µM
- IC50 [7]: 60.2 µM
- IC50 [8]: 23.7 µM

Compound: hydroxypropyl-β-cyclodextrin [HP-β-CD]
- inhibitory activity against HEK293T ([1]; 25.0-200.0 μM): did not show any inhibitory activity
- inhibition of growth, SW1116 ([4]; MTT, 24 h, 25.0-200.0 μM): did not show any inhibition; also recorded: no inhibitory effect
- inhibition of growth, SMMC-7721 ([5]; MTT, 24 h, 25.0-200.0 μM): did not show any inhibition; also recorded: no inhibitory effect

Compound: CC(=O)O[C@H]1C=CC(=O)O[C@H]1[C@H]1O[C@@H]1c1ccccc1 [Cheliensisin A, (2R,3S)-6-oxo-2-((2S,3R)-3-phenyloxiran-2-yl)-3,6-dihydro-2H-pyran-3-yl acetate]
- IC50 [1, 11]: > 100 µM
- IC50 ([1]; pristine compound, 25.0-200.0 μM, read-out: IC50 HEK293T Compound): > 200 µM
- IC50 [2]: > 100 µM
- IC50 [3]: > 100 µM
- IC50 [4, 12]: 93.18 ± 0.78 µM
- IC50 ([4]; pristine compound, MTT, 24 h, 25.0-200.0 μM, read-out: IC50 SW1116 Compound): 93.18 ± 0.78 µM
- IC50 reduced by complexation with HP-β-CD, SW1116 ([4]; complex vs pristine compound): 45%
- IC50 [5, 13]: > 100 µM
- IC50 ([5]; pristine compound, MTT, 24 h, 25.0-200.0 μM, read-out: IC50 SMMC-7721 Compound): 111 ± 2.41 µM
- IC50 reduced by complexation with HP-β-CD, SMMC-7721 ([5]; complex vs pristine compound): 58%

Compound: CC(=O)OC(C1CC=CC(=O)O1)C1OC(C2CC=CC(=O)O2)C(c2ccccc2)c2ccccc21 (centres unmarked) [Leiocarpin E-7′-monoacetate, leiocarpin E-7′-monoacetate]
- ratio of ODsample to ODnegative (caspase activity) ([9]; SW1116, 3 μM): ≤ 1
- ratio of ODsample to ODnegative (caspase activity) ([9]; SW1116, 10 μM): greater than 1
- ratio of ODsample to ODnegative (caspase activity) ([9]; SW1116, 30 μM): greater than 1
- IC50 [1, 11]: > 100 µM
- IC50 [2]: 45 ± 4.27 µM
- IC50 [3]: 50.1 ± 3.25 µM
- cell viability of SW1116 cells compared with normal group (0 μM) ([4]; 24 h): significantly less
- IC50 [4, 12]: 6.73 ± 0.89 µM
- early apoptosis rate (Q4) ([10]; SW1116, 3 μM): 2.6%
- early apoptosis rate (Q4) ([10]; SW1116, 10 μM): 21.8%
- early apoptosis rate (Q4) ([10]; SW1116, 30 μM): 55.2%
- IC50 [5, 13]: 61.7 ± 10.1 µM
